Test results: paper PMC2709242 (Molecular cell, 2009)
Values belong to the molecule of their own block, whether it stands above or below them.

Key:
[1] = tested on: K63-linked diUb (K63-Ub2); experiment: Fluorescence anisotropy binding to K63-linked diUb
[2] = tested on: K63-Ub4; experiment: Fluorescence anisotropy binding to K63-linked tetraUb; settings: ratio of Kd values, solution-state measurements

linkage selectivity for diUb (K63-Ub2 vs K48-Ub2), in words [1]: very little selectivity
K63-Ub2 binding affinity, in words ([1]; compared with other tUIM peptides): substantially more weakly
Molecule: REVNSQEREVNSQE: Rap80 tUIM peptide with linker between UIMs extended to 14 residues

preference for K63-Ub4 over K48-Ub4 [2]: 7 fold
B1: Rap80 (residues 1 - 233): soluble fragment of Rap80 longer than the minimal tUIMs (protein, UniProt Q96RL1 1-233, looked up, fragment)
chain: MPRRKKKVKEVSESRNLEKKDVETTSSVSVKRKRRLEDAFIVISDSDGEEPKEENGLQKTKTKQSNRAKCLAKRKIAQMTEEEQFALALKMSEQEAREVNSQEEEEEELLRKAIAESLNSCRPSDASATRSRPLATGPSSQSHQEKTTDSGLTEGIWQLVPPSLFKGSHISQGNEAEEREEPWDHTEKTEEEPVSGSSGSWDQSSQPVFENVNVKSFDRCTGHSAEHTQCGKP
